Earlier results in patent US20220387454A1, “NUTRITIONAL COMPOSITION FOR VISUAL FUNCTION” (OMNIACTIVE HEALTH TECHNOLOGIES LIMITED, priority 2019, published 2022).

System: patients with dry eye syndrome (DES) refractory to conventional treatment with vitamin D deficiency
Conditions: intramuscular 200,000 IU, p<0.05

C=C1CC[C@H](O)C/C1=C/C=C1\CCC[C@]2(C)[C@@H]([C@H](C)CCCC(C)C)CC[C@@H]12 [cholecalciferol]
Eyelid margin hyperemia (2, 6, and 10 weeks): showed improvement | Severity of symptoms (2, 6, and 10 weeks): showed improvement | Tear break-up time (TBUT) (2 and 6 weeks vs pre-treatment): showed an improvement | Tear secretion test (2 and 6 weeks vs pre-treatment): showed an improvement | Fluorescein staining score (FSS) (2 weeks vs pre-treatment): decreased | Ocular surface disease index (OSDI) (2 weeks vs pre-treatment): decreased | Visual analogue pain score (VAS) (2 weeks vs pre-treatment): decreased
